Measured values from US10695321B2, “Use of glycopyrrolate for treating tachycardia” (Heptares Therapeutics Limited, priority 2011, dated 2020).

Test system: subjects with COPD
Assay: Phase IIa placebo-controlled crossover dose-ranging study, heart rate (vital signs) after single inhaled dose
Assay type: in vivo, human
Settings: for Adjusted Mean for Average Change in Heart Rate from Test day Baseline: ANCOVA
Protocol: The study was a Phase IIa, multi-centre, randomised, double-blind, placebo-controlled, crossover, dose-ranging study using four dose levels of glycopyrronium bromide in subjects with COPD. A total of 40 subjects were required to complete the study.
Subjects were randomised to receive a single inhaled dose of 20, 125, 250 and 400 μg of glycopyrronium bromide in ascending order, with a placebo dose randomised into the sequence over 5 study visits. Subjects were randomised to receive treatment on Study Day 1 prior to dosing. All doses, including placebo, were administered using the Miat Monohaler.
The Treatment period then consisted of five study visits (separated by a 5-14-day wash-out period), during which subjects were dosed with a single inhaled dose of glycopyrronium bromide using a Miat Monohaler, in ascending order (20, 125, 250 or 400 μg). A placebo was randomly administered (using a Miat Monohaler) at one of the study visits; subsequent visits continued with the next highest dose of glycopyrronium bromide to that which was administered prior to the placebo.
All subjects were scheduled to be dosed between 08:00 and 10:00 am. For individual subjects, dosing was at the same time of day (±30 minutes). At each dosing visit, subjects received a single dose of glycopyrronium bromide or placebo administered via Miat Monohaler. Each different dose (20, 125, 250 or 400 μg) was contained in one capsule. An appropriate number of Miat Monohalers to conduct the study was also supplied to the site. A new Miat Monohaler was used to administer each dose at each visit.
copyrronium bromide was presented in size 3, white opaque, hard, gelatin capsules packaged in aluminium pouches. The capsules were presented in four dose strengths containing 20, 125, 250, or 400 μg glycopyrronium bromide. In addition to glycopyrronium bromide, excipient present in the capsule formulation consisted of the PowderHale^TM formulation of lactose and magnesium stearate.
All vital signs were measured on each study day, including heart rate (with the subject semi-supine for 5 minutes prior to measurement); blood pressure; respiratory rate and temperature were measured at each visit and before receiving study medication (pre-treatment), if applicable. Blood pressure and heart rate were also measured at 45, 90 minutes and 5, 10, 20 and 30 hours post-treatment on study days.
The statistical analyses were to be reported using summary tables and data listings. Statistical tests for the evaluation were to be performed at the 0.05 significance level using a two-sided test.
All analyses and tabulations were to be performed using SASS Version 6.12 on a PC platform. Continuous variables were to be summarised with sample size (n), mean, standard deviation (SD), minimum, median, and maximum. […] The mean was to have one extra decimal place and the standard deviation was to have two extra decimal places. Categorical variables were to be summarised with number and percentage of subjects.

[1] = 250 μg single inhaled dose, 90 mins post-dose
[2] = 250 μg single inhaled dose, 5 hrs post-dose
[3] = 250 μg single inhaled dose, 10 hrs post-dose
[4] = 250 μg single inhaled dose, 20 hrs post-dose
[5] = 250 μg single inhaled dose, 30 hrs post-dose
[6] = 250 μg single inhaled dose, pre-dose to 45 mins post-dose
[7] = 250 μg single inhaled dose, pre-dose to 90 mins post-dose
[8] = 250 μg single inhaled dose, pre-dose to 5 hours post-dose
[9] = 250 μg single inhaled dose, pre-dose to 10 hours post-dose
[10] = 250 μg single inhaled dose, pre-dose to 20 hours post-dose
[11] = 250 μg single inhaled dose, pre-dose to 30 hours post-dose
[12] = 400 μg single inhaled dose, 45 mins post-dose
[13] = 400 μg single inhaled dose, 90 mins post-dose
[14] = 400 μg single inhaled dose, 5 hrs post-dose
[15] = 400 μg single inhaled dose, 10 hrs post-dose
[16] = 400 μg single inhaled dose, 20 hrs post-dose
[17] = 400 μg single inhaled dose, 30 hrs post-dose
[18] = 400 μg single inhaled dose, pre-dose to 45 mins post-dose
[19] = 400 μg single inhaled dose, pre-dose to 90 mins post-dose
[20] = 400 μg single inhaled dose, pre-dose to 10 hours post-dose
[21] = 400 μg single inhaled dose, pre-dose to 30 hours post-dose

C[N+]1(C)CCC(OC(=O)C(O)(c2ccccc2)C2CCCC2)C1 (stereo not drawn) [glycopyrronium bromide]
Heart Rate Median (250 μg single inhaled dose, 45 mins post-dose): 64.0 bpm | Heart Rate Mean [1]: 68.2 bpm | Heart Rate Median [1]: 69.0 bpm | Heart Rate Mean [2]: 68.4 bpm | Heart Rate Median [2]: 68.5 bpm | Heart Rate Mean [3]: 66.3 bpm | Heart Rate Median [3]: 65.0 bpm | Heart Rate Mean [4]: 66.6 bpm | Heart Rate Median [4]: 65.0 bpm | Heart Rate Mean [5]: 70.7 bpm | Heart Rate Median [5]: 71.5 bpm | Heart Rate Change from Test day Baseline, Mean [6]: −4.6 bpm | Heart Rate Change from Test day Baseline, Median [6]: −4.5 bpm | Heart Rate Change from Test day Baseline, Mean [7]: −1.7 bpm | Heart Rate Change from Test day Baseline, Median [7]: −1.0 bpm | Heart Rate Change from Test day Baseline, Mean [8]: −1.4 bpm | Heart Rate Change from Test day Baseline, Median [8]: 0.0 bpm | Heart Rate Change from Test day Baseline, Mean [9]: −3.6 bpm | Heart Rate Change from Test day Baseline, Median [9]: −4.0 bpm | Heart Rate Change from Test day Baseline, Mean [10]: −3.4 bpm | Heart Rate Change from Test day Baseline, Median [10]: −4.0 bpm | Heart Rate Change from Test day Baseline, Mean [11]: 1.0 bpm | Heart Rate Change from Test day Baseline, Median [11]: 2.5 bpm | Adjusted Mean for Average Change in Heart Rate from Test day Baseline (250 μg, to 45 mins post-dose): −3.693 bpm | Dose v Placebo Difference, adjusted mean change in Heart Rate from Test day Baseline (250 μg, to 45 mins post-dose, p-value 0.324): −1.364 bpm | Adjusted Mean for Average Change in Heart Rate from Test day Baseline (250 μg, to 90 mins post-dose): −0.763 bpm | Dose v Placebo Difference, adjusted mean change in Heart Rate from Test day Baseline (250 μg, to 90 mins post-dose, p-value 0.203): −2.035 bpm | Adjusted Mean for Average Change in Heart Rate from Test day Baseline (250 μg, to 5 hours post-dose): −0.586 bpm | Dose v Placebo Difference, adjusted mean change in Heart Rate from Test day Baseline (250 μg, to 5 hours post-dose, p-value 0.072): −2.633 bpm | Adjusted Mean for Average Change in Heart Rate from Test day Baseline (250 μg, to 10 hours post-dose): −4.657 bpm | Dose v Placebo Difference, adjusted mean change in Heart Rate from Test day Baseline (250 μg, to 10 hours post-dose, p-value 0.078): −2.832 bpm | Adjusted Mean for Average Change in Heart Rate from Test day Baseline (250 μg, to 20 hours post-dose): −1.858 bpm | Dose v Placebo Difference, adjusted mean change in Heart Rate from Test day Baseline (250 μg, to 20 hours post-dose, p-value 0.773): −0.390 bpm | Adjusted Mean for Average Change in Heart Rate from Test day Baseline (250 μg, to 30 hours post-dose): 1.436 bpm | Dose v Placebo Difference, adjusted mean change in Heart Rate from Test day Baseline (250 μg, to 30 hours post-dose, p-value 0.581): 0.817 bpm | Statistical significance (p) of heart rate change relative to placebo (400 μg dose, 45 minute to 10 hour timepoints inclusive): < 0.05 | Heart Rate Mean [12]: 65.4 bpm | Heart Rate Median [12]: 65.0 bpm | Heart Rate Mean [13]: 67.1 bpm | Heart Rate Median [13]: 67.5 bpm | Heart Rate Mean [14]: 69.7 bpm | Heart Rate Median [14]: 69.0 bpm | Heart Rate Mean [15]: 65.7 bpm | Heart Rate Median [15]: 65.5 bpm | Heart Rate Mean [16]: 66.7 bpm | Heart Rate Median [16]: 66.0 bpm | Heart Rate Mean [17]: 70.9 bpm | Heart Rate Median [17]: 70.0 bpm | Heart Rate Change from Test day Baseline, Mean [18]: −7.4 bpm | Heart Rate Change from Test day Baseline, Median [18]: −6.5 bpm | Heart Rate Change from Test day Baseline, Mean [19]: −5.7 bpm | Heart Rate Change from Test day Baseline, Median [19]: −4.5 bpm | Heart Rate Change from Test day Baseline, Mean (400 μg single inhaled dose, pre-dose to 5 hours post-dose): −3.1 bpm | Heart Rate Change from Test day Baseline, Mean [20]: −6.4 bpm | Heart Rate Change from Test day Baseline, Median [20]: −5.5 bpm | Heart Rate Change from Test day Baseline, Mean (400 μg single inhaled dose, pre-dose to 20 hours post-dose): −5.6 bpm | Heart Rate Change from Test day Baseline, Mean [21]: −1.4 bpm | Heart Rate Change from Test day Baseline, Median [21]: 0.0 bpm | Adjusted Mean for Average Change in Heart Rate from Test day Baseline (400 μg, to 45 mins post-dose): −7.052 bpm | Dose v Placebo Difference, adjusted mean change in Heart Rate from Test day Baseline (400 μg, to 45 mins post-dose, p-value 0.005): −4.723 bpm | Adjusted Mean for Average Change in Heart Rate from Test day Baseline (400 μg, to 90 mins post-dose): −4.315 bpm | Dose v Placebo Difference, adjusted mean change in Heart Rate from Test day Baseline (400 μg, to 90 mins post-dose, p-value 0.004): −5.587 bpm | Adjusted Mean for Average Change in Heart Rate from Test day Baseline (400 μg, to 5 hours post-dose): −3.455 bpm | Dose v Placebo Difference, adjusted mean change in Heart Rate from Test day Baseline (400 μg, to 5 hours post-dose, p-value 0.002): −5.502 bpm | Adjusted Mean for Average Change in Heart Rate from Test day Baseline (400 μg, to 10 hours post-dose): −6.919 bpm | Dose v Placebo Difference, adjusted mean change in Heart Rate from Test day Baseline (400 μg, to 10 hours post-dose, p-value 0.008): −5.095 bpm | Adjusted Mean for Average Change in Heart Rate from Test day Baseline (400 μg, to 20 hours post-dose): −2.371 bpm | Dose v Placebo Difference, adjusted mean change in Heart Rate from Test day Baseline (400 μg, to 20 hours post-dose, p-value 0.583): −0.903 bpm | Adjusted Mean for Average Change in Heart Rate from Test day Baseline (400 μg, to 30 hours post-dose): 0.475 bpm | Dose v Placebo Difference, adjusted mean change in Heart Rate from Test day Baseline (400 μg, to 30 hours post-dose, p-value 0.935): −0.143 bpm | Mean heart rate from Test Day Baseline, dose relation (20-400 μg inhaled, up to 5 hours post-dose): dose dependent decrease | Subsequent tachycardic effect (any of the inhaled doses, up to 30 hours): not evident
